Laboratory results published in the supplement of paper PMC10307832.

Columns and labels:
Assay in all cases: relative viability (nuclei count vs DMSO), 5 days (fraction); higher = more cells survive
[1] = compound: CC(C)(C)c1cc(NC(=O)Nc2ccc(-c3cn4c(n3)sc3cc(OCCN5CCOCC5)ccc34)cc2)no1 [Quizartinib] + CC(C)C[C@H](NC(=O)[C@H](Cc1ccccc1)NC(=O)c1cnccn1)B(O)O [Bortezomib] (partner 0.002 µM)
How it was run: (§1)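 Lung cancer cell lines in 1536-well plates got either a single drug or a fixed anchor-drug dose together with five library-drug doses (not always all listed) in √10 steps, by pin tool, on the day after seeding. Nuclei were counted after 5 days, and relative viability is the treated-to-vehicle ratio of nuclei counts. Values are medians of duplicate plates.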

[2] = compound: CC(C)(C)c1cc(NC(=O)Nc2ccc(-c3cn4c(n3)sc3cc(OCCN5CCOCC5)ccc34)cc2)no1 [Quizartinib] + CS(=O)(=O)CCNCc1ccc(-c2ccc3ncnc(Nc4ccc(OCc5cccc(F)c5)c(Cl)c4)c3c2)o1 [Lapatinib] (partner 2 µM)
How it was run: as §1

[3] = compound: CC(C)(C)c1cc(NC(=O)Nc2ccc(-c3cn4c(n3)sc3cc(OCCN5CCOCC5)ccc34)cc2)no1 [Quizartinib] + Cc1cc(Nc2cc(N3CCN(C)CC3)nc(Sc3ccc(NC(=O)C4CC4)cc3)n2)n[nH]1 [Tozasertib] (partner 0.1 µM)
How it was run: as §1

[4] = compound: CC(C)(C)c1cc(NC(=O)Nc2ccc(-c3cn4c(n3)sc3cc(OCCN5CCOCC5)ccc34)cc2)no1 [Quizartinib] + O=C(c1cc(Cc2n[nH]c(=O)c3ccccc23)ccc1F)N1CCN(C(=O)C2CC2)CC1 [Olaparib] (partner 8 µM)
How it was run: as §1

| Cell Line | relative viability ([1]; first compound 0.001 µM) | relative viability ([1]; first compound 0.003162 µM) | relative viability ([1]; first compound 0.01 µM) | relative viability ([1]; first compound 0.03162 µM) | relative viability ([1]; first compound 0.1 µM) | relative viability ([2]; first compound 0.001 µM) | relative viability ([2]; first compound 0.003162 µM) | relative viability ([2]; first compound 0.01 µM) | relative viability ([2]; first compound 0.03162 µM) | relative viability ([2]; first compound 0.1 µM) | relative viability ([3]; first compound 0.001 µM) | relative viability ([3]; first compound 0.003162 µM) | relative viability ([3]; first compound 0.01 µM) | relative viability ([3]; first compound 0.1 µM) | relative viability ([4]; first compound 0.001 µM) | relative viability ([4]; first compound 0.003162 µM) | relative viability ([4]; first compound 0.01 µM) | relative viability ([4]; first compound 0.1 µM) | relative viability ([3]; first compound 0.03162 µM) | relative viability ([4]; first compound 0.03162 µM) |
| --- | --- | --- | --- | --- | --- | --- | --- | --- | --- | --- | --- | --- | --- | --- | --- | --- | --- | --- | --- | --- |
| NCI-H2023 | 0.777 | 0.947 | 0.942 | 0.751 | 0.926 | 0.0985 | 0.819 | 0.737 | 0.293 | 0.846 | 0.278 | 0.32 | 0.272 | 0.177 | 0.418 | 0.422 | 0.513 | 0.417 | – | – |
| NCI-H1993 | 1.2 | 1.17 | 1.19 | 1.02 | 1.33 | 0.786 | 0.846 | 0.72 | 0.746 | 0.891 | 0.589 | 0.645 | 0.594 | 0.582 | 0.968 | 1.24 | 1.07 | 1.07 | 0.622 | 1.14 |
| PC-3 [JPC-3] | 0.782 | 0.822 | 0.859 | 0.791 | 0.841 | 0.416 | 0.472 | 0.471 | 0.481 | 0.415 | 0.835 | 0.849 | 0.909 | 0.852 | 1.15 | 1.1 | 1.21 | 1.12 | 0.849 | 1.05 |
| NCI-H650 | 0.785 | 0.768 | 0.818 | 0.885 | 1.01 | 0.888 | 0.754 | 0.726 | 0.688 | 1.1 | 0.706 | 0.676 | 0.694 | 0.736 | 0.373 | 0.334 | 0.44 | 0.474 | 0.689 | 0.4 |
| NCI-H596 | 1.15 | 0.92 | 1.1 | 1.19 | 1.2 | 1.06 | 0.985 | 1.08 | 1.08 | 1.17 | 0.642 | 0.838 | 0.964 | 0.64 | 0.728 | 0.636 | 0.732 | 0.717 | 0.803 | 0.658 |
| NCI-H2087 | 0.833 | 0.927 | 0.88 | 0.939 | 0.914 | 0.665 | 0.906 | 1 | 1.09 | 0.935 | – | 0.226 | 0.233 | 0.262 | 0.654 | 0.578 | 0.619 | 0.583 | 0.189 | 0.587 |
